{
  "source": "patent US20160166608A1",
  "about": "“METHODS OF TREATING CANCER WITH HIGH POTENCY LIPID-BASED PLATINUM COMPOUND FORMULATIONS ADMINISTERED INTRAPERITONEALLY” (Insmed Incorporated, priority 2005, published 2016)",
  "test_system": "L1210 cells",
  "test": "Survival of DBA/2 mice with L1210 cells after a single ip bolus (Example 15)",
  "format": "in vivo, mouse",
  "conditions": "6 mg/kg single ip bolus on day 5; L1210, DBA/2 mice",
  "description": "DPPC (3.0 g) and cholesterol (1.2 g) were co-dissolved in 20 mL of ethanol. • 2.\nThe mice were given equivalent amounts of cisplatin containing therapeutics based on the amount of lipid instead of the amount of cisplatin.\nFemale DBA/2 mice (Charles Rivers) were used. Thirty (30) mice were injected with 2×10^6 L1210 cells ip on Day 0. On day 1, the mice were weighed and randomized into 3 groups of 10 mice. […] Survival was monitored. Mice were weighed daily after day 10. Mice that lost 20% or greater of their starting weight were euthanized by CO2 inhalation. The date of their death was recorded on data sheets. Median survival was calculated by Prism GraphPad.",
  "data": [
    {"smiles": "N.N.[Cl][Pt][Cl]", "note": "[cisplatin, cis-diamine-dichloroplatinum (II)]", "values": [
      {"measurement": "days of median survival", "value": 19.5, "unit": "days"}
    ]}
  ]
}
